Measurements: ChEMBL document CHEMBL5303573, “Mapping human microbiome drug metabolism by gut bacteria and their genes” (Nature, 2019)

Assays:
[1] = The drug is tested on Bacteroides caccae strain: ATCC43185 for biotransformation. The drug concentrations were measured before and after a 12-h incubation by liquid-chromatography-coupled mass spectrometry (LC–MS); settings: 2 µM
[2] = The drug is tested on Clostridium sp. strain: fecal isolate for biotransformation. The drug concentrations were measured before and after a 12-h incubation by liquid-chromatography-coupled mass spectrometry (LC–MS); settings: 2 µM
[3] = bacteroides fragilis, 12 h, 2 µM
Description: The drug is tested on Bacteroides fragilis strain: 3397 (T10) for biotransformation. The drug concentrations were measured before and after a 12-h incubation by liquid-chromatography-coupled mass spectrometry (LC–MS)

[4] = The drug is tested on Bacteroides pectinophilus strain: ATCC43243 for biotransformation. The drug concentrations were measured before and after a 12-h incubation by liquid-chromatography-coupled mass spectrometry (LC–MS); settings: 2 µM
[5] = The drug is tested on Anaerotruncus colihominis strain: DSM17241 for biotransformation. The drug concentrations were measured before and after a 12-h incubation by liquid-chromatography-coupled mass spectrometry (LC–MS); settings: 2 µM
[6] = The drug is tested on Ruminococcus lactaris strain: ATCC29176 for biotransformation. The drug concentrations were measured before and after a 12-h incubation by liquid-chromatography-coupled mass spectrometry (LC–MS); settings: 2 µM
[7] = The drug is tested on Bacteroides fragilis strain: HMW610 for biotransformation. The drug concentrations were measured before and after a 12-h incubation by liquid-chromatography-coupled mass spectrometry (LC–MS); settings: 2 µM
[8] = The drug is tested on Providencia rettgeri strain: DSM1131 for biotransformation. The drug concentrations were measured before and after a 12-h incubation by liquid-chromatography-coupled mass spectrometry (LC–MS); type: ADME; design: dose 2 uM, timepoint 0 vs 12 hours; settings: 2 µM
[9] = bacteroides eggerthii, 12 h, 2 µM
Description: The drug is tested on Bacteroides eggerthii strain: DSM20697 for biotransformation. The drug concentrations were measured before and after a 12-h incubation by liquid-chromatography-coupled mass spectrometry (LC–MS)

[10] = The drug is tested on Ruminococcus torques strain: ATCC27756 for biotransformation. The drug concentrations were measured before and after a 12-h incubation by liquid-chromatography-coupled mass spectrometry (LC–MS); type: ADME; design: dose 2 uM, timepoint 0 vs 12 hours; settings: 2 µM
[11] = The drug is tested on Bifidobacterium breve strain: DSM20213 for biotransformation. The drug concentrations were measured before and after a 12-h incubation by liquid-chromatography-coupled mass spectrometry (LC–MS); settings: 2 µM
[12] = The drug is tested on Bacteroides coprophilus strain: DSM18228 for biotransformation. The drug concentrations were measured before and after a 12-h incubation by liquid-chromatography-coupled mass spectrometry (LC–MS); settings: 2 µM
[13] = bacteroides thetaiotaomicron, 12 h, 2 µM
Description: The drug is tested on Bacteroides thetaiotaomicron strain: 7330 for biotransformation. The drug concentrations were measured before and after a 12-h incubation by liquid-chromatography-coupled mass spectrometry (LC–MS)

[14] = The drug is tested on Clostridium asparagiforme strain: DSM15981 for biotransformation. The drug concentrations were measured before and after a 12-h incubation by liquid-chromatography-coupled mass spectrometry (LC–MS); type: ADME; design: dose 2 uM, timepoint 0 vs 12 hours; settings: enterocloster asparagiformis, 2 µM
[15] = The drug is tested on Parabacteroides merdae strain: ATCC43184 for biotransformation. The drug concentrations were measured before and after a 12-h incubation by liquid-chromatography-coupled mass spectrometry (LC–MS); settings: 2 µM
[16] = parabacteroides distasonis, 12 h, 2 µM
Description: The drug is tested on Parabacteroides distasonis strain: ATCC8503 for biotransformation. The drug concentrations were measured before and after a 12-h incubation by liquid-chromatography-coupled mass spectrometry (LC–MS)

[17] = bacteroides fragilis, 12 h, 2 µM; remark: listed apart in the source
Description: The drug is tested on Bacteroides fragilis strain: DS-208 for biotransformation. The drug concentrations were measured before and after a 12-h incubation by liquid-chromatography-coupled mass spectrometry (LC–MS)

[18] = parabacteroides johnsonii, 12 h, 2 µM
Description: The drug is tested on Parabacteroides johnsonii strain: DSM18315 for biotransformation. The drug concentrations were measured before and after a 12-h incubation by liquid-chromatography-coupled mass spectrometry (LC–MS)

[19] = The drug is tested on Bifidobacterium longum subsp. Infantis strain: CCUG52486 for biotransformation. The drug concentrations were measured before and after a 12-h incubation by liquid-chromatography-coupled mass spectrometry (LC–MS); settings: 2 µM
[20] = The drug is tested on Bacteroides fragilis strain: ATCC43859 for biotransformation. The drug concentrations were measured before and after a 12-h incubation by liquid-chromatography-coupled mass spectrometry (LC–MS); settings: 2 µM

Row | Compound | Bacterial Biotransformation [1] | Bacterial Biotransformation [2] | Bacterial Biotransformation [3] | Bacterial Biotransformation [4] | Bacterial Biotransformation [5] | Bacterial Biotransformation [6] | Bacterial Biotransformation [7] | Bacterial Biotransformation [8] | Bacterial Biotransformation [9] | Bacterial Biotransformation [10] | Bacterial Biotransformation [11] | Bacterial Biotransformation [12] | Bacterial Biotransformation [13] | Bacterial Biotransformation [14] | Bacterial Biotransformation [15] | Bacterial Biotransformation [16] | Bacterial Biotransformation [17] | Bacterial Biotransformation [18] | Bacterial Biotransformation [19] | Bacterial Biotransformation [20]
1 | CN1CC(=O)N2[C@H](c3ccc4c(c3)OCO4)c3[nH]c4ccccc4c3C[C@@H]2C1=O | Compound NOT metabolized | Compound NOT metabolized | Compound NOT metabolized | Compound NOT metabolized | Compound NOT metabolized | Compound NOT metabolized | Compound metabolized | Compound NOT metabolized | Compound NOT metabolized | Compound NOT metabolized | Compound NOT metabolized | Compound NOT metabolized | Compound metabolized | Compound NOT metabolized | Compound NOT metabolized | Compound NOT metabolized | – | – | – | –
2 | CC(O)(CS(=O)(=O)c1ccc(F)cc1)C(=O)Nc1ccc(C#N)c(C(F)(F)F)c1 (centres undefined) [BICALUTAMIDE] | Compound NOT metabolized | Compound NOT metabolized | Compound NOT metabolized | Compound NOT metabolized | Compound NOT metabolized | Compound NOT metabolized | Compound metabolized | – | Compound NOT metabolized | Compound NOT metabolized | – | Compound NOT metabolized | Compound NOT metabolized | Compound NOT metabolized | Compound NOT metabolized | Compound metabolized | Compound NOT metabolized | Compound NOT metabolized | Compound NOT metabolized | –
3 | C#C[C@]1(OC(C)=O)CC[C@H]2[C@@H]3CCC4=C[C@@H](OC(C)=O)CC[C@@H]4[C@H]3CC[C@@]21C [ETHYNODIOL DIACETATE] | Compound NOT metabolized | Compound NOT metabolized | Compound NOT metabolized | Compound NOT metabolized | Compound NOT metabolized | Compound NOT metabolized | – | Compound NOT metabolized | Compound NOT metabolized | Compound NOT metabolized | – | Compound NOT metabolized | Compound NOT metabolized | Compound NOT metabolized | Compound NOT metabolized | Compound NOT metabolized | Compound NOT metabolized | – | Compound NOT metabolized | –
4 | CCN(CC)CCCC(C)Nc1c2ccc(Cl)cc2nc2ccc(OC)cc12 (centres undefined) [QUINACRINE] | – | – | Compound NOT metabolized | Compound NOT metabolized | Compound NOT metabolized | – | – | – | Compound NOT metabolized | Compound NOT metabolized | Compound NOT metabolized | Compound NOT metabolized | Compound NOT metabolized | Compound NOT metabolized | Compound NOT metabolized | Compound NOT metabolized | Compound NOT metabolized | – | Compound NOT metabolized | Compound NOT metabolized
5 | CC(C)c1nc(CN(C)C(=O)N[C@H](C(=O)N[C@@H](Cc2ccccc2)C[C@H](O)[C@H](Cc2ccccc2)NC(=O)OCc2cncs2)C(C)C)cs1 [RITONAVIR] | Compound NOT metabolized | Compound metabolized | Compound NOT metabolized | Compound NOT metabolized | Compound NOT metabolized | Compound NOT metabolized | – | Compound NOT metabolized | Compound metabolized | Compound NOT metabolized | Compound NOT metabolized | Compound NOT metabolized | Compound NOT metabolized | Compound NOT metabolized | Compound NOT metabolized | Compound NOT metabolized | Compound metabolized | Compound NOT metabolized | Compound NOT metabolized | –
6 | CNS(=O)(=O)Cc1ccc2[nH]cc(CCN(C)C)c2c1.O=C(O)CCC(=O)O [SUMATRIPTAN SUCCINATE] | Compound NOT metabolized | Compound NOT metabolized | – | Compound NOT metabolized | Compound NOT metabolized | Compound NOT metabolized | Compound metabolized | Compound NOT metabolized | Compound NOT metabolized | Compound NOT metabolized | Compound NOT metabolized | – | – | Compound NOT metabolized | Compound NOT metabolized | Compound NOT metabolized | Compound metabolized | Compound NOT metabolized | Compound NOT metabolized | –
7 | COc1ccc(CN2CCNCC2)c(OC)c1OC.Cl.Cl [TRIMETAZIDINE DIHYDROCHLORIDE] | Compound NOT metabolized | Compound NOT metabolized | Compound metabolized | Compound NOT metabolized | Compound NOT metabolized | Compound NOT metabolized | – | Compound metabolized | Compound NOT metabolized | Compound NOT metabolized | Compound NOT metabolized | Compound metabolized | Compound metabolized | Compound metabolized | Compound metabolized | Compound metabolized | – | Compound metabolized | Compound metabolized | –
8 | Cc1ccc(-c2nc3ccc(C)cn3c2CC(=O)N(C)C)cc1 [ZOLPIDEM] | Compound NOT metabolized | Compound NOT metabolized | Compound NOT metabolized | Compound NOT metabolized | Compound NOT metabolized | Compound NOT metabolized | Compound NOT metabolized | Compound NOT metabolized | – | Compound NOT metabolized | Compound NOT metabolized | – | Compound NOT metabolized | Compound NOT metabolized | Compound NOT metabolized | – | Compound NOT metabolized | – | Compound NOT metabolized | –
